Test results as given in ChEMBL document CHEMBL4420062, “Tfpi inhibitors and methods of use” (2013).
Each block holds one compound with its values, some of them ahead of it. Activity calls are given as the source filed them. The rule behind the calls is not given here.

Columns and labels:
Callithrix = conditions: Plasma, 10 uM
Plasma [1] = test: Effect on blood coagulation parameters in plasma isolated from hemophilia A patient assessed as clot formation time at 40 nM by rotation thromboelastography (reference value: 1540 secs); type: functional, Homo sapiens
Plasma [2] = test: Effect on blood coagulation parameters in plasma isolated from hemophilia A patient at 120 nM by rotation thromboelastography (reference value: 0%); type: functional, Homo sapiens
Plasma [3] = test: (§1) Effect on blood coagulation parameters in plasma isolated from hemophilia A patient at […] by rotation thromboelastography (reference value: 0%); type: functional, Homo sapiens
Plasma [4] = test: Effect on blood coagulation parameters in plasma isolated from hemophilia A patient assessed as maximum clot firmness at 40 nM by rotation thromboelastography; type: functional, Homo sapiens
Plasma [5] = test: Effect on blood coagulation parameters in plasma isolated from hemophilia A patient at 40 nM by rotation thromboelastography (reference value: 0%); type: functional, Homo sapiens
Plasma [6] = test: Effect on blood coagulation parameters in plasma isolated from hemophilia A patient assessed as clotting time at 40 nM by rotation thromboelastography (reference value: 2907 secs); type: functional, Homo sapiens
Plasma [7] = test: Effect on blood coagulation parameters in plasma isolated from hemophilia A patient assessed as clot formation time at 120 nM by rotation thromboelastography (reference value: 1540 secs); type: functional, Homo sapiens
Plasma [8] = test: (§2) Effect on blood coagulation parameters in plasma isolated from hemophilia A patient assessed as clotting time at […] by rotation thromboelastography (reference value: 2907 secs); type: functional, Homo sapiens
Plasma [9] = test: (§3) Effect on blood coagulation parameters in plasma isolated from hemophilia A patient assessed as clot formation time at […] by rotation thromboelastography (reference value: 1540 secs); type: functional, Homo sapiens
[10] = Stability in human plasma assessed as parent compound remaining after 24 hrs; type: ADME, cell-free; conditions: read-out: Stability
[11] = Stability in mouse plasma assessed as parent compound remaining after 24 hrs; type: ADME, cell-free; conditions: read-out: Stability
Plasma [12] = test: as §1; type: functional, Homo sapiens; remark: listed apart in the source
Plasma [13] = test: Effect on blood coagulation parameters in plasma isolated from hemophilia A patient assessed as maximum clot firmness at 120 nM by rotation thromboelastography; type: functional, Homo sapiens
Plasma [14] = test: as §3; type: functional, Homo sapiens; remark: listed apart in the source
Plasma [15] = test: Effect on blood coagulation parameters in plasma isolated from hemophilia A patient assessed as clotting time at 120 nM by rotation thromboelastography (reference value: 2907 secs); type: functional, Homo sapiens
Plasma [16] = test: as §2; type: functional, Homo sapiens; remark: listed apart in the source
[17] = target: Tissue factor pathway inhibitor (Homo sapiens) (UniProt P10646); test: Inhibition of TFPI in human plasma with induced factor-8 deficiency assessed as increase in thrombin generation by measuring FEIBA at 10 uM using thrombin-specific fluorogenic substrate Z-Gly-Gly-Arg-AMC by calibrated automated thrombography relative to inhibitory polyclonal anti-TFPI antibody; type: cell-free
[18] = target: T1, Tissue factor pathway inhibitor (Homo sapiens, UniProt P10646); test: Inhibition of TFPI in human plasma with induced factor-8 deficiency assessed as increase in thrombin generation by measuring FEIBA at 10 uM using thrombin-specific fluorogenic substrate Z-Gly-Gly-Arg-AMC by calibrated automated thrombography; type: cell-free
T1 sequence (P10646 whole entry): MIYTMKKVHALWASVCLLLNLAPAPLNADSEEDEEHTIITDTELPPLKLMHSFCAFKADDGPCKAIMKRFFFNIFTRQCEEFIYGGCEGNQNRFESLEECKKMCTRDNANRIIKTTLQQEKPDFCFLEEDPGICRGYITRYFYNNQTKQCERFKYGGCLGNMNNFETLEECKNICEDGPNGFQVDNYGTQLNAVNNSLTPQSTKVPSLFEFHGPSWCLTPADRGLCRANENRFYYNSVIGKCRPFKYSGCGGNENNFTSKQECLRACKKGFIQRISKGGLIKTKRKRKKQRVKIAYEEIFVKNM

SMILES: CSCC[C@@H]1NC(=O)[C@H](C)NC(=O)[C@@H](NC(=O)[C@H](Cc2cnc[nH]2)NC(=O)[C@H](Cc2c[nH]c3ccccc23)NC(=O)[C@H](CCCCN)NC(=O)[C@H](Cc2ccc(O)cc2)NC(=O)[C@H](Cc2ccc(O)cc2)NC(=O)[C@H](CO)NC(C)=O)CSSC[C@@H](C(=O)N[C@H](C(=O)N[C@@H](Cc2c[nH]c3ccccc23)C(=O)N[C@H](C(=O)N[C@@H](CCCCN)C(=O)N[C@@H](Cc2ccccc2)C(N)=O)C(C)C)C(C)C)NC(=O)[C@H]([C@@H](C)O)NC(=O)[C@H](CCSC)NC(=O)[C@H]([C@@H](C)O)NC(=O)CNC(=O)[C@@H](CCCCN)NC(=O)[C@H](CCSC)NC(=O)[C@H](CC(=O)O)NC(=O)[C@H](CCCNC(=N)N)NC1=O
- inhibition (Callithrix): inactive

- remaining at 24 h [10]: 10 to 23.8%
- remaining at 24 h [11]: 10 to 15.9%
SMILES: CCN1C(=O)CC(SC[C@H](NC(=O)[C@H](CC(C)C)NC(=O)[C@H](CCCCN)NC(=O)[C@H](C)NC(=O)C(C)(C)NC(=O)[C@H](CC(C)C)NC(=O)[C@H](CCCNC(=N)N)NC(=O)[C@H](CCC(=O)O)NC(=O)[C@H](Cc2ccccc2)NC(=O)[C@H](Cc2ccc(O)cc2)NC(=O)CNC(=O)[C@H](CC(=O)O)NC(=O)[C@@H](NC(=O)[C@H](Cc2cnc[nH]2)NC(=O)[C@@H](NC(=O)[C@H](CC(N)=O)NC(=O)[C@H]2CCCN2C(=O)[C@H](CCCCN)NC(=O)[C@H](CO)NC(=O)[C@H](CCC(N)=O)NC(=O)[C@H](Cc2ccccc2)NC(C)=O)C(C)C)C(C)C)C(N)=O)C1=O (some centres undefined)
- Time (Plasma [1]): 457 s
- Activity (Plasma [2]): 139%
- Activity (Plasma [3]): 0%
- Activity (Plasma [4]): 64 mm
- Activity (Plasma [5]): 119%
- Time (Plasma [6]): 1143 s
- Time (Plasma [7]): 219 s
- Time (Plasma [8]): 2249 s
- Time (Plasma [9]): 1480 s
- Activity (Plasma [12]): 44%
- Activity (Plasma [13]): 64 mm
- Time (Plasma [14]): 2488 s
- Time (Plasma [15]): 853 s
- Time (Plasma [16]): 2901 s

- inhibition [17]: 55.9%
- EC50 [18]: 4.8 nM
SMILES: CSCC[C@@H]1NC(=O)[C@H](C)NC(=O)[C@H](NC(=O)[C@H](Cc2cnc[nH]2)NC(=O)[C@H](Cc2c[nH]c3ccccc23)NC(=O)[C@H](CCCCN)NC(=O)[C@H](Cc2ccc(O)cc2)NC(=O)[C@H](Cc2cnc[nH]2)NC(=O)[C@H](CO)NC(C)=O)CSSC[C@@H](C(=O)N[C@H](C(=O)N[C@@H](Cc2c[nH]c3ccccc23)C(=O)N[C@H](C(=O)N[C@@H](CCCCN)C(=O)N[C@@H](Cc2ccccc2)C(N)=O)C(C)C)C(C)C)NC(=O)[C@H](CO)NC(=O)[C@H](CCSC)NC(=O)[C@H]([C@@H](C)O)NC(=O)CNC(=O)[C@H]([C@@H](C)O)NC(=O)[C@H](CCSC)NC(=O)[C@H](CC(=O)O)NC(=O)[C@H](CCCNC(=N)N)NC1=O
